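These data come from cells grown in 96-well plates and exposed to compound for 48 hours at five concentrations. TGI: concentration producing complete growth inhibition.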
How the values were obtained:
Experiment in all cases: inhibition of tumour cell growth, NCI panel, 48 h
HCT-116 colon = test system: HCT-116 colon
HS 578T breast = test system: HS 578T breast
IGROV1 ovarian = test system: IGROV1 ovarian
K-562 leukemia = test system: K-562 leukemia
MOLT-4 leukemia = test system: MOLT-4 leukemia
NCI-H226 lung = test system: NCI-H226 lung
NCI-H460 lung = test system: NCI-H460 lung
OVCAR-3 ovarian = test system: OVCAR-3 ovarian
OVCAR-4 ovarian = test system: OVCAR-4 ovarian
OVCAR-5 ovarian = test system: OVCAR-5 ovarian
OVCAR-8 ovarian = test system: OVCAR-8 ovarian
RXF 393 renal = test system: RXF 393 renal
SF-295 CNS = test system: SF-295 CNS
SK-MEL-28 melanoma = test system: SK-MEL-28 melanoma
SK-MEL-5 melanoma = test system: SK-MEL-5 melanoma
SNB-19 CNS = test system: SNB-19 CNS
T-47D breast = test system: T-47D breast
U251 CNS = test system: U251 CNS
UACC-257 melanoma = test system: UACC-257 melanoma
UO-31 renal = test system: UO-31 renal

| Structure (SMILES) | TGI (HCT-116 colon) [µM] | TGI (HS 578T breast) [µM] | TGI (IGROV1 ovarian) [µM] | TGI (K-562 leukemia) [µM] | TGI (MOLT-4 leukemia) [µM] | TGI (NCI-H226 lung) [µM] | TGI (NCI-H460 lung) [µM] | TGI (OVCAR-3 ovarian) [µM] | TGI (OVCAR-4 ovarian) [µM] | TGI (OVCAR-5 ovarian) [µM] | TGI (OVCAR-8 ovarian) [µM] | TGI (RXF 393 renal) [µM] | TGI (SF-295 CNS) [µM] | TGI (SK-MEL-28 melanoma) [µM] | TGI (SK-MEL-5 melanoma) [µM] | TGI (SNB-19 CNS) [µM] | TGI (T-47D breast) [µM] | TGI (U251 CNS) [µM] | TGI (UACC-257 melanoma) [µM] | TGI (UO-31 renal) [µM] |
| --- | --- | --- | --- | --- | --- | --- | --- | --- | --- | --- | --- | --- | --- | --- | --- | --- | --- | --- | --- | --- |
| N=C(N)SCc1ccc2c(c1)Sc1ccccc1O2 | 22.3 | 16.5 | 11.9 | > 100 | > 93.3 | 31.1 | 21.5 | 16.9 | 18.1 | 25.3 | 32.5 | 14 | 24.2 | 38.7 | 3.11 | 30.6 | 43 | > 71.4 | 14.2 | 10.6 |
| CC(=N/N=C/c1ccccn1)/C(C)=N/N=C(C)/C(C)=N/N=C(C)/C(C)=N/N=C(C)/C(C)=N\N=C\c1ccccn1 | > 100 | > 100 | > 100 | > 100 |  | > 100 | > 100 | > 100 | > 100 | > 100 | > 100 | > 100 | > 100 | > 100 | > 100 | > 100 | > 100 | > 100 | > 100 | > 100 |
| CC1=NN(c2cccc(Cl)c2)C2(C1=C/C=C/c1ccccc1)C(Cl)C(=O)N2c1nc2ccccc2s1 (configuration not stated) | > 86.1 | 49 | > 100 | 31 | 12.1 | > 100 | > 100 | > 80.9 | > 100 | > 71.2 | 62.2 | > 49 | > 100 | > 100 | > 58.7 | > 100 | > 100 | 37.2 | > 100 | > 61.2 |
| CC(=O)Nc1nc(C#N)[nH]c1C#N | > 100 | > 100 | > 100 | > 100 | > 100 | > 100 | > 100 | > 100 | > 100 | > 100 | > 100 | > 100 | > 100 | > 100 | > 100 | > 100 | > 100 | > 100 | > 100 | > 100 |
| COc1ccc(NC(=O)CC(=O)N2N=C(N3c4ccccc4Sc4ccccc43)CC2c2ccccc2)cc1 (configuration not stated) | > 100 | 96.9 | > 100 | > 100 | > 100 | > 100 | > 100 | > 100 | > 100 | > 100 | > 100 | > 100 | > 100 | > 100 | > 100 | > 100 | > 100 | > 100 | > 100 | > 100 |
| CC1=NN(c2cccc(Cl)c2)C2(SCC(=O)N2c2nc3ccccc3s2)/C1=C\c1ccccc1O (configuration not stated) | 28.2 | 65.5 | 80.9 | > 100 | 42.3 | > 100 | > 100 | 80.3 | > 100 | > 100 | 42 | 32.8 | > 100 | > 100 | 32.3 |  | 37.9 | 53.5 | > 100 | 38.5 |
| NS(=O)(=O)c1cc2c(cc1Cl)NC(CCC(=O)O)=NS2(=O)=O | > 100 | > 100 | > 100 | > 100 |  | > 100 | > 100 | > 100 | > 100 | > 100 | > 100 | > 100 | > 100 | > 100 | > 100 | > 100 | > 100 | > 100 | > 100 | > 100 |
| CSC(=S)N(C)C | > 100 | > 100 | > 100 | > 100 | > 100 | > 100 | > 100 | > 100 |  | > 100 | > 100 | > 100 | > 100 | > 100 | > 100 | > 100 | > 100 | > 100 | > 100 | > 100 |
| COc1cccc2c1OC1(C=C2)Oc2ccccc2C(=O)N1C (configuration not stated) | > 100 | 81.8 | > 100 | > 100 | 81.4 | 95.9 | 98.6 | > 100 | > 100 | > 100 | 54.4 | > 100 | 97.9 | > 100 | > 100 | > 100 | 99 | > 100 | > 100 | > 100 |
| Cc1cc(C(=O)CCCCOc2ccc(C3=NCCO3)cc2)c(C)n1C | > 100 | > 100 | > 100 | > 100 | 34.4 | 98 |  | > 100 | > 100 | > 100 | > 100 | 72.8 | > 100 | 83.1 | 34.9 | > 100 | 65.6 | > 100 | > 100 | > 100 |
| O=C(Nc1nccs1)c1c(O)nc2sccn2c1=O | > 10 | > 10 | > 10 |  | > 10 | > 10 | > 10 | > 10 | > 10 | > 10 | > 10 | > 10 | > 10 | > 10 | > 10 | > 10 | > 10 | > 10 |  | > 10 |
| Cc1cc2c3c(nc4ccccc42)C(=O)c2ccccc2-c3n1 | 75.4 | 46.7 | > 100 | 15.1 | 24.1 | 67 |  | 0.906 | > 100 | > 100 | 34.8 | > 100 | 60.4 | 43.3 | 3.1 | > 100 | > 100 | > 100 | > 100 | > 100 |

Reference: PubChem BioAssay (NCI)
